Measurements as given in US20220364989A1, “METHOD FOR MEASURING PHOTOTOXICITY OR PHOTOALLERGY AND REAGENT FOR USE THEREIN” (FUJIFILM Corporation, priority 2018, published 2022).
Like-named read-outs stand apart in the source and are kept apart here.

Experiments:
[1] = NAC depletion under and without ultraviolet irradiation, HPLC with fluorescence detection (284 nm excitation, 333 nm fluorescence); conditions: under light irradiation, single compound
Method: (§1) A 1 mmol/L solution of a test substance in water, acetonitrile, acetone, or 5% by mass dimethyl sulfoxide (DMSO)/acetonitrile solution is prepared and used as a test substance solution. A solvent in which the test substance is soluble at a concentration of 1 mmol/L is used. If the test substance is soluble in a plurality of solvents, the solvent is selected in the following order of priority: water, acetonitrile, acetone, and 5% by mass DMSO/acetonitrile.
(§2) Test substance solutions are prepared on a 96-well plate (U96 PP-0.5 ML NATURAL, Thermo (NUNC)), mainly using a 12-channel pipette, and the reagents are added in the following amounts:
(§3) Nucleophilic reagents (NAC and NAL): 150 μL
Test substance solution: 50 μL
(§4) The plate is firmly sealed with a plate seal (resistant embossed seal, Shimadzu GLC Ltd.) and is shaken on a plate shaker (Titramax 100, Heidolph Instruments). After being spun down in a centrifuge, the reaction solutions are irradiated with light at 2,000 μW/cm^2 using an SXL-2500V2 ultraviolet irradiation apparatus (manufactured by SERIC., Ltd.) for 1 hour, followed by incubation at 25° C. in a light-shielded state for 23 hours. As controls without light irradiation, reaction solutions are prepared, followed by incubation at 25° C. in a light-shielded state for 24 hours.
(§5) For measurements using a fluorescence detector, 180 μL of the reaction stop solution (0.5% (v/v) TFA) is dispensed into each well of another plate in advance, and 20 μL of each sample is added so that the sample is diluted 10-fold.
(§6) The depletion of NAC or NAL is calculated from the average (n=3) peak area of unreacted NAC or NAL after the reaction and the average (n=3) peak area of NAC or NAL in a standard solution (no test substance added) by the following equations:
NAC depletion (% depletion)=[1−(average peak area of unreacted NAC after reaction/average peak area of NAC) in standard solution (no test substance added)]×100
The average peak area of unreacted NAC after the reaction is the average area calculated from three measurements on unreacted NAC after the reaction. The average peak area of NAC in a standard solution (no test substance added) is the average area calculated from three measurements on NAC in a reaction solution prepared by adding the solvent used for dissolution of the test substance instead of the test substance solution.
(§7) As the conditions without light irradiation, the 1 mmol/L test substance solutions were each reacted with the nucleophilic reagents, namely, NAC and NAL, at 25° C. for 24 hours. As the conditions with light irradiation, the 1 mmol/L test substance solutions were each irradiated at room temperature with light at 2,000 μW/cm^2 for 1 hour and were then reacted at 25° C. for 23 hours.
(§8) All reactions were performed on the 96-well plate. For each sample, n=3. As comparative controls, reaction solutions to which only the solvents, which are used to dissolve the test substances, were added were also prepared. The reaction solutions were prepared such that the concentrations of NAC and NAL were 5 μmon and the concentration of the test substance was 0.25 mmol/L. After 24 hours, HPLC measurements were made by two detection methods, namely, light absorption detection on a photodiode array (PDA) detector and fluorescence detection on a fluorescence detector. For PDA detection, a trifluoroacetic acid (TFA) aqueous solution was added to the reaction solutions to a final TFA concentration of 0.5% (v/v) before use in the HPLC measurements. For fluorescence detection, each sample was diluted tenfold with a 0.5% (v/v) trifluoroacetic acid (TFA) aqueous solution before use in the HPLC measurements.

[2] = cited from earlier work
[3] = NAL depletion under and without ultraviolet irradiation, HPLC with fluorescence detection (284 nm excitation, 333 nm fluorescence); conditions: under light irradiation, single compound
Method: as §1, §2, §3
Test substance solution: 50 μL
as §4, §5, §6
NAL depletion (% depletion)=[1−(average peak area of unreacted NAL after reaction/average peak area of NAL) in standard solution (no test substance added)]×100
The average peak area of unreacted NAL after the reaction is the average area calculated from three measurements on unreacted NAL after the reaction. The average peak area of NAL in a standard solution (no test substance added) is the average area calculated from three measurements on NAL in a reaction solution prepared by adding the solvent used for dissolution of the test substance instead of the test substance solution.
as §7, §8

[4] = Average score of NAC and NAL depletion and phototoxicity or photoallergy determination, fluorescence detection; conditions: under light irradiation, single compound
Method: After being spun down in a centrifuge, the reaction solutions are irradiated with light at 2,000 μW/cm^2 using an SXL-2500V2 ultraviolet irradiation apparatus (manufactured by SERIC., Ltd.) for 1 hour, followed by incubation at 25° C. in a light-shielded state for 23 hours. As controls without light irradiation, reaction solutions are prepared, followed by incubation at 25° C. in a light-shielded state for 24 hours.
as §7, §8
The depletions of the nucleophilic reagents (NAC and NAL) were determined by UV detection at 281 nm or fluorescence detection at an excitation wavelength of 284 nm and a fluorescence wavelength of 333 nm under the HPLC measurement conditions given in “(5) HPLC Measurement” above.
As the conditions without light irradiation, the liquid mixtures were each reacted with the nucleophilic reagents, namely, NAC and NAL, at 25° C. for 24 hours. As the conditions with light irradiation, the liquid mixtures were each irradiated at room temperature with light at 2,000 μW/cm^2 for 1 hour and were then reacted at 25° C. for 23 hours.
All reactions were performed on the 96-well plate. For each sample, n=3. Reaction solutions to which only the solvent used for calculation of the depletions of NAC and NAL was added were also prepared. The reaction solutions were prepared such that the concentrations of NAC and NAL were 5 μmon and the concentration of the test substance was 0.5 mmol/L. After 24 hours, HPLC measurements were made by two detection methods, namely, light absorption detection on a photodiode array (PDA) detector and fluorescence detection on a fluorescence detector. For PDA detection, a trifluoroacetic acid (TFA) aqueous solution was added to the reaction solutions to a final TFA concentration of 0.5% (v/v) before use in the HPLC measurements.

[5] = cited from earlier work; remark: listed apart in the source

Compound	NAC Depletion (%) [1]	In vivo phototoxicity ([2]; in vivo)	NAL Depletion (%) [3]	Average score (%) [4]	In vivo photoallergy ([5]; in vivo)	In vivo phototoxicity ([2]; literature classification)	In vivo photoallergy ([5]; literature classification)
COc1c2occc2cc2ccc(=O)oc12 [No. 3, 8-Methoxypsoralen, reference compound]	98.6%	Positive	45.4%	72.0%	Positive		
Cc1c([N+](=O)[O-])c(C)c([N+](=O)[O-])c(C(C)(C)C)c1[N+](=O)[O-] [No. 18, Musk xylene, reference compound]	88.9%		6.4%	47.6%		Negative	Positive
Tetrachlorosalicylanilide [No. 12, reference compound]	97.4%		86.5%	92.0%		Positive	Positive
CCO [No. 50, Ethanol]		Negative		0.0%	Negative		
CC1(C)S[C@@H]2[C@H](NC(=O)Cc3ccccc3)C(=O)N2[C@H]1C(=O)O [No. 44, Penicillin G, reference compound]	2.4%		1.2%	1.8%		Negative	Negative
